The values that follow come from patent publication US20230073777A1, “CYCLIC-AMP RESPONSE ELEMENT BINDING PROTEIN (CBP) AND/OR ADENOVIRAL E1A BINDING PROTEIN OF 300 KDA (P300) DEGRADATION COMPOUNDS AND METHODS OF USE” (CULLGEN (SHANGHAI), INC., priority 2019, published 2023).

In one test the target is P300 (Homo sapiens, UniProt Q09472). Nature of the test: Immunoblotting of P300 protein levels in LNCaP or 22RV1 cells. In kind it is cell-based. Details: LNCaP or 22RV1 cells that express CBP/P300 proteins were treated with GNE-781 or the bivalent compounds; endogenous in cells; host or cells: LNCaP (clone FGC) or 22RV1 cells. Conditions: read-out: Degradation (10 nM). The method in brief:
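P300/CBP levels quantified by chemiluminescent immunoblot band densitometry, normalized against tubulin or vinculin loading controls. Lysates came from LNCaP or 22RV1 cells exposed to compounds or DMSO vehicle for indicated times.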

The next test concerns LNCaP cells. Nature of the test: LNCaP cell viability assay (CellTiter-Glo). In kind it is cell-based. Conditions: Homo sapiens, 72 h, LNCaP prostate cancer cell viability inhibition, 3 days. The method in brief: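 Three-day treatment of LNCaP cells (5000 per well) across a 12-point, 3-fold dilution series starting at 10 μM. ATP luminescence (CellTiter-Glo) relative to untreated controls gave dose-response curves fitted nonlinearly for IC50.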

The mark [1] stands for this setting: percentage of inhibition of p300 at 10 nM (Table 3).
Setting [2] is: percentage of inhibition of p300 at 10 nM (Table 2).

Molecules are shown by their SMILES. Where two headings read alike, the source gives them in different places.

Chain of P300 (Q09472 whole entry): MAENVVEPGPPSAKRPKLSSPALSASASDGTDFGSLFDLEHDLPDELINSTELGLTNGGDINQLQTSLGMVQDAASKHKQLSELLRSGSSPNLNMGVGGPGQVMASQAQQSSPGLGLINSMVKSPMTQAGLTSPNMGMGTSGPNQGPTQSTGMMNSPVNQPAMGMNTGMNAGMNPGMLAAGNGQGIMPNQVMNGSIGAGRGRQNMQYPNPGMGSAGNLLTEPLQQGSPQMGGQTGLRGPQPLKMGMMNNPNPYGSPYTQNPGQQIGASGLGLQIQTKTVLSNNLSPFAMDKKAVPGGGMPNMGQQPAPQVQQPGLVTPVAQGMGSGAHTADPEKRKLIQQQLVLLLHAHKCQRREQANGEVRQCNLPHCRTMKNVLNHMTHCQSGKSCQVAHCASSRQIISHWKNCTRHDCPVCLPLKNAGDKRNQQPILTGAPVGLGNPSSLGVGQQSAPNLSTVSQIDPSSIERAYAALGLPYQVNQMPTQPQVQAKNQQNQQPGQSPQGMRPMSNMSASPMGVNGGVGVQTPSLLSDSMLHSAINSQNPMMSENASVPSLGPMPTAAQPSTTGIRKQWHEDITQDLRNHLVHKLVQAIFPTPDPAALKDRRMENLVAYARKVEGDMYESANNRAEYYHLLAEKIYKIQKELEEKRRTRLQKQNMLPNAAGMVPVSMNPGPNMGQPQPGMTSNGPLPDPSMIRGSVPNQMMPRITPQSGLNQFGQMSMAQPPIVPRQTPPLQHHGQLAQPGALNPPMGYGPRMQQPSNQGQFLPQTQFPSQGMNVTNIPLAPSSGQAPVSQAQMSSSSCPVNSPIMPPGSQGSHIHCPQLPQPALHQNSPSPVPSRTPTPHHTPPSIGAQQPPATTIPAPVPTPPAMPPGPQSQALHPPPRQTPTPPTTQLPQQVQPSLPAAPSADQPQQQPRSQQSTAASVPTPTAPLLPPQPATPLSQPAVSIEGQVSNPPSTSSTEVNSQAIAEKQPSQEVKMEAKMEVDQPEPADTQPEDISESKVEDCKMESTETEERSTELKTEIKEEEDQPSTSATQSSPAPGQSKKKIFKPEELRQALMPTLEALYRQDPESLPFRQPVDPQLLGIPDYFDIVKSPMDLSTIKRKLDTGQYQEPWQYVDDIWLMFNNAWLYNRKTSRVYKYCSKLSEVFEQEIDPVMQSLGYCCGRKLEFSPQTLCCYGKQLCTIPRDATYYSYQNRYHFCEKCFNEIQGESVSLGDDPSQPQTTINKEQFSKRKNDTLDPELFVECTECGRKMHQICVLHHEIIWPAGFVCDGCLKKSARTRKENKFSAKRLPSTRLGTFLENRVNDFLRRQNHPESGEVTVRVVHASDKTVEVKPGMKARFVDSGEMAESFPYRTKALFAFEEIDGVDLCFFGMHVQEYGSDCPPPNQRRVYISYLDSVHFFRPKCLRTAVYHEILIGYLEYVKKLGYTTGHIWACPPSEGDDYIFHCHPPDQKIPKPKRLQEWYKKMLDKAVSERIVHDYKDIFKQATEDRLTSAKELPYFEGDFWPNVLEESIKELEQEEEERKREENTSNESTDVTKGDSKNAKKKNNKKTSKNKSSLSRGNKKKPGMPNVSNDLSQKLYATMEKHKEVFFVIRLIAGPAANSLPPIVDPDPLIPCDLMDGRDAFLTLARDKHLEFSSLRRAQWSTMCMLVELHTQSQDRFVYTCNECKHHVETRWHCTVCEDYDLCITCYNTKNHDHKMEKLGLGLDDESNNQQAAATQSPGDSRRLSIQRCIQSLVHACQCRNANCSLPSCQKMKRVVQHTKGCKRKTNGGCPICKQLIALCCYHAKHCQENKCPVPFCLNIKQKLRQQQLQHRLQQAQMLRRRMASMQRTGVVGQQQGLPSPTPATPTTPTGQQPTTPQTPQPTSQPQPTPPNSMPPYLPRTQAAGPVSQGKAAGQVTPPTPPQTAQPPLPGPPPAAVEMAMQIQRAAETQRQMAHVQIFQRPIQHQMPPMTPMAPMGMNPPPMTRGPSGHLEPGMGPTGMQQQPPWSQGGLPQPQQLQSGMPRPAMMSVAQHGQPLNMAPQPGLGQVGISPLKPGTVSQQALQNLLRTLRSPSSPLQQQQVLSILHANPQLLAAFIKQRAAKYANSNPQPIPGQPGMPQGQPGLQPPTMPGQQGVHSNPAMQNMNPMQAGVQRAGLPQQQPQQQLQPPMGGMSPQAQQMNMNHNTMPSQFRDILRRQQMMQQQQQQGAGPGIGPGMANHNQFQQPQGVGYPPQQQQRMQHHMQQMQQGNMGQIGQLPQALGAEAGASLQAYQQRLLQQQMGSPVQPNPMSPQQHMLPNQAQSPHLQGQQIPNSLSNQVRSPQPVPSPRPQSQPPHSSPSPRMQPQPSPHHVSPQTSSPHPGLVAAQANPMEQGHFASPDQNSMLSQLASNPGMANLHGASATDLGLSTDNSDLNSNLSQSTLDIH

For the compound `CNC(=O)N1CCc2c(c(N3CCCc4cc(-c5cnn(CC(=O)NCCCC(=O)N[C@H](C(=O)N6C[C@H](O)C[C@H]6C(=O)NCc6ccc(-c7scnc7C)cc6)C(C)(C)C)c5)c(C(F)F)cc43)nn2C2CCOCC2)C1` [P-079, 3-(7-(Difluoromethyl)-6-(1-(2-((4-(((S)-1-((2S,4R)-4-hydroxy-2-((4-(4-methylthiazol-5-yl)benzyl)carbamoyl)pyrrolidin-1-yl)-3,3-dimethyl-1-oxobutan-2-yl)amino)-4-oxobutyl)amino)-2-oxoethyl)-1H-pyrazol-4-yl)-3,4-dihydroquinolin-1(2H)-yl)-N-methyl-1-(tetrahydro-2H-pyran-4-yl)-1,4,6,7-tetrahydro-5H-pyrazolo[4,3-c]pyridine-5-carboxamide], the inhibition at 0.01 µM at P300 (setting [1]) is less than 20%. In the test with LNCaP cells (CellTiter-Glo (Table 3)), this compound came in with an IC50 greater than 10 µM.

With `CC(=O)N1CCc2c(c(N3CCCc4cc(-c5cnn(C)c5)c(C(F)F)cc43)nn2C2CCN(CCc3ccc(COc4cccc5c4CN(C4CCC(=O)NC4=O)C5=O)cc3)CC2)C1` (centres unmarked) [P-173, 3-(4-((4-(2-(4-(5-acetyl-3-(7-(difluoromethyl)-6-(1-methyl-1H-pyrazol-4-yl)-3,4-dihydroquinolin-1(2H)-yl)-4,5,6,7-tetrahydro-1H-pyrazolo[4,3-c]pyridin-1-yl)piperidin-1-yl)ethyl)benzyl)oxy)-1-oxoisoindolin-2-yl)piperidine-2,6-dione], the inhibition at 0.01 µM at P300 (setting [1]) is 20 to 50%. The IC50 with LNCaP cells (CellTiter-Glo (Table 3)) stood at 0.0034 µM.

For `CC(=O)N1CCc2c(c(N3CCCc4cc(-c5cnn(C)c5)c(C(F)F)cc43)nn2C2CCN(C(=O)CCCCCNc3cccc4nc(C)n(C5CCC(=O)NC5=O)c(=O)c34)CC2)C1` (centres unmarked) [P-165, 3-(5-((6-(4-(5-Acetyl-3-(7-(difluoromethyl)-6-(1-methyl-1H-pyrazol-4-yl)-3,4-dihydroquinolin-1(2H)-yl)-4,5,6,7-tetrahydro-1H-pyrazolo[4,3-c]pyridin-1-yl)piperidin-1-yl)-6-oxohexyl)amino)-2-methyl-4-oxoquinazolin-3(4H)-yl)piperidine-2,6-dione], at P300 (setting [1]), the inhibition at 0.01 µM was 50 to 80%. Moreover, in the test on LNCaP cells (CellTiter-Glo (Table 3)), 0.123 µM corresponded to half-maximal inhibition (IC50).

With `CC(=O)N1CCc2c(c(N3CCCc4cc(-c5cnn(C)c5)c(C(F)F)cc43)nn2C2CCN(C(=O)CCCCCCCNc3ccc4c(c3)C(=O)N(C3CCC(=O)NC3=O)C4=O)CC2)C1` (centres unmarked) [P-119, 5-((8-(4-(5-acetyl-3-(7-(difluoromethyl)-6-(1-methyl-1H-pyrazol-4-yl)-3,4-dihydroquinolin-1(2H)-yl)-4,5,6,7-tetrahydro-1H-pyrazolo[4,3-c]pyridin-1-yl)piperidin-1-yl)-8-oxooctyl)amino)-2-(2,6-dioxopiperidin-3-yl)isoindoline-1,3-dione], the inhibition at 0.01 µM on P300 (setting [1]) was greater than 80%. This compound displayed an IC50 with LNCaP cells (CellTiter-Glo (Table 3)) of 0.0017 µM.

Regarding `CNC(=O)N1CCc2c(c(N3CCCc4cc(-c5cnn(C)c5)c(C(F)F)cc43)nn2C2CCN(C(=O)CCCCCOc3cccc4c3C(=O)N(C3CCC(=O)NC3=O)C4)CC2)C1` (centres unmarked) [P-089, 3-(7-(Difluoromethyl)-6-(1-methyl-1H-pyrazol-4-yl)-3,4-dihydroquinolin-1(2H)-yl)-1-(1-(6-((2-(2,6-dioxopiperidin-3-yl)-3-oxoisoindolin-4-yl)oxy)hexanoyl)piperidin-4-yl)-N-methyl-1,4,6,7-tetrahydro-5H-pyrazolo[4,3-c]pyridine-5-carboxamide], the inhibition at 0.01 µM on P300 (setting [1]) was less than 20%. The IC50 in the test with LNCaP cells (CellTiter-Glo (Table 3)) turned out to be 0.0785 µM.

As to `CC(=O)N1CCc2c(c(N3CCCc4cc(-c5cnn(C)c5)c(C(F)F)cc43)nn2C2CCN(CCN3CCC(CCc4cccc5c4C(=O)N(C4CCC(=O)NC4=O)C5=O)CC3)CC2)C1` (centres unmarked) [P-157, 4-(2-(1-(2-(4-(5-acetyl-3-(7-(difluoromethyl)-6-(1-methyl-1H-pyrazol-4-yl)-3,4-dihydroquinolin-1(2H)-yl)-4,5,6,7-tetrahydro-1H-pyrazolo[4,3-c]pyridin-1-yl)piperidin-1-yl)ethyl)piperidin-4-yl)ethyl)-2-(2,6-dioxopiperidin-3-yl)isoindoline-1,3-dione], the inhibition at 0.01 µM at P300 (setting [1]) was 50 to 80%. Also, the midpoint of inhibition in the test with LNCaP cells (CellTiter-Glo (Table 3)), the IC50, lay at 0.0032 µM.

As for `CC(=O)N1CCc2c(c(N3CCCc4cc(-c5cnn(C)c5)c(C(F)F)cc43)nn2C2CCN(C(=O)CCCCCOc3cccc4c3CN(C3CCC(=O)NC3=O)C4=O)CC2)C1` (centres unmarked) [P-121, 3-(4-((6-(4-(5-Acetyl-3-(7-(difluoromethyl)-6-(1-methyl-1H-pyrazol-4-yl)-3,4-dihydroquinolin-1(2H)-yl)-4,5,6,7-tetrahydro-1H-pyrazolo[4,3-c]pyridin-1-yl)piperidin-1-yl)-6-oxohexyl)oxy)-1-oxoisoindolin-2-yl)piperidine-2,6-dione], the inhibition at 0.01 µM at P300 (setting [1]) was greater than 80%. The same compound had an IC50 in the test with LNCaP cells (CellTiter-Glo (Table 3)) of 0.0288 µM.

Turning to `CC(=O)N1CCc2c(c(N3CCCc4cc(-c5cnn(C)c5)c(C(F)F)cc43)nn2C2CCN(C(=O)CCCCCCNc3cccc4nc(C)n(C5CCC(=O)NC5=O)c(=O)c34)CC2)C1` (centres unmarked) [P-152, 3-(5-((7-(4-(5-Acetyl-3-(7-(difluoromethyl)-6-(1-methyl-1H-pyrazol-4-yl)-3,4-dihydroquinolin-1(2H)-yl)-4,5,6,7-tetrahydro-1H-pyrazolo[4,3-c]pyridin-1-yl)piperidin-1-yl)-7-oxoheptyl)amino)-2-methyl-4-oxoquinazolin-3(4H)-yl)piperidine-2,6-dione], the inhibition at 0.01 µM on P300 (setting [1]) was less than 20%. The IC50 in the test on LNCaP cells (CellTiter-Glo (Table 3)) is 0.169 µM.

With `CNC(=O)N1CCc2c(c(N3CCCc4cc(-c5cnn(C)c5)c(C(F)F)cc43)nn2C2CCN(C(=O)CCCCCCNc3ccc4c(c3)C(=O)N(C3CCC(=O)NC3=O)C4=O)CC2)C1` (centres unmarked) [P-006, 3-(7-(difluoromethyl)-6-(1-methyl-1H-pyrazol-4-yl)-3,4-dihydroquinolin-1(2H)-yl)-1-(1-(7-((2-(2,6-dioxopiperidin-3-yl)-1,3-dioxoisoindolin-5-yl)amino)heptanoyl)piperidin-4-yl)-N-methyl-1,4,6,7-tetrahydro-5H-pyrazolo[4,3-c]pyridine-5-carboxamide], the inhibition at 0.01 µM on P300 (setting [2]) was greater than 80%. Further, half-maximal inhibition in the test on LNCaP cells (CellTiter-Glo (Table 2)) (IC50) was put at 0.0032 µM.

`CNC(=O)N1CCc2c(c(N3CCCc4cc(-c5cnn(CC(=O)NCCCCCCCC(=O)N[C@H](C(=O)N6C[C@H](O)C[C@H]6C(=O)NCc6ccc(-c7scnc7C)cc6)C(C)(C)C)c5)c(C(F)F)cc43)nn2C2CCOCC2)C1` [P-048, 3-(7-(Difluoromethyl)-6-(1-(2-((8-(((S)-1-((2S,4R)-4-hydroxy-2-((4-(4-methylthiazol-5-yl)benzyl)carbamoyl)pyrrolidin-1-yl)-3,3-dimethyl-1-oxobutan-2-yl)amino)-8-oxooctyl)amino)-2-oxoethyl)-1H-pyrazol-4-yl)-3,4-dihydroquinolin-1(2H)-yl)-N-methyl-1-(tetrahydro-2H-pyran-4-yl)-1,4,6,7-tetrahydro-5H-pyrazolo[4,3-c]pyridine-5-carboxamide]: at P300 (setting [2]), the inhibition at 0.01 µM was less than 20%. In the test on LNCaP cells (CellTiter-Glo (Table 2)), this compound gave an IC50 of 0.471 µM.

With `CNC(=O)N1CCc2c(c(N3CCCc4cc(-c5cnn(CC(=O)NCCNc6cccc7c6C(=O)N(C6CCC(=O)NC6=O)C7=O)c5)c(C(F)F)cc43)nn2C2CCOCC2)C1` (centres unmarked) [P-037, 3-(7-(Difluoromethyl)-6-(1-(2-((2-((2-(2,6-dioxopiperidin-3-yl)-1,3-dioxoisoindolin-4-yl)amino)ethyl)amino)-2-oxoethyl)-1H-pyrazol-4-yl)-3,4-dihydroquinolin-1(2H)-yl)-N-methyl-1-(tetrahydro-2H-pyran-4-yl)-1,4,6,7-tetrahydro-5H-pyrazolo[4,3-c]pyridine-5-carboxamide], the inhibition at 0.01 µM on P300 (setting [2]) was less than 20%. For the same compound, the IC50 in the test with LNCaP cells (CellTiter-Glo (Table 2)) was greater than 10 µM.

For `CNC(=O)N1CCc2c(c(N3CCCc4cc(-c5cnn(C)c5)c(C(F)F)cc43)nn2C2CCN(C(=O)CCCCC(=O)N[C@H](C(=O)N3C[C@H](O)C[C@H]3C(=O)NCc3ccc(-c4scnc4C)cc3)C(C)(C)C)CC2)C1` [P-058, 3-(7-(Difluoromethyl)-6-(1-methyl-1H-pyrazol-4-yl)-3,4-dihydroquinolin-1(2H)-yl)-1-(1-(6-(((S)-1-((2S,4R)-4-hydroxy-2-((4-(4-methylthiazol-5-yl)benzyl)carbamoyl)pyrrolidin-1-yl)-3,3-dimethyl-1-oxobutan-2-yl)amino)-6-oxohexanoyl)piperidin-4-yl)-N-methyl-1,4,6,7-tetrahydro-5H-pyrazolo[4,3-c]pyridine-5-carboxamide], the inhibition at 0.01 µM at P300 (setting [1]) is less than 20%. Moreover, half-maximal inhibition with LNCaP cells (CellTiter-Glo (Table 3)) (IC50) was put at 0.0678 µM.

For `CNC(=O)N1CCc2c(c(N3CCCc4cc(-c5cnn(C)c5)c(C(F)F)cc43)nn2C2CCN(C(=O)COCCOCC(=O)N[C@H](C(=O)N3C[C@H](O)C[C@H]3C(=O)NCc3ccc(-c4scnc4C)cc3)C(C)(C)C)CC2)C1` [P-066, 3-(7-(Difluoromethyl)-6-(1-methyl-1H-pyrazol-4-yl)-3,4-dihydroquinolin-1(2H)-yl)-1-(1-(2-(2-(2-(((S)-1-((2S,4R)-4-hydroxy-2-((4-(4-methylthiazol-5-yl)benzyl)carbamoyl)pyrrolidin-1-yl)-3,3-dimethyl-1-oxobutan-2-yl)amino)-2-oxoethoxy)ethoxy)acetyl)piperidin-4-yl)-N-methyl-1,4,6,7-tetrahydro-5H-pyrazolo[4,3-c]pyridine-5-carboxamide], at P300 (setting [1]), the inhibition at 0.01 µM is less than 20%. This compound also had an IC50 in the test on LNCaP cells (CellTiter-Glo (Table 3)) of 0.135 µM.
